Results on 11 molecules are retold here after ChEMBL document CHEMBL4627391, “Bioactive Compounds from the Aerial Parts of Evolvulus linarioides” (J Nat Prod, 2020).

In data set [1] the test system is J774. Briefly: Antiinflammatory activity in mouse J774 cells assessed as LPS/IFNgamma-induced IL-1beta level at 25 uM incubated for 24 hrs by ELISA (reference value: 9.6 to 26.1 pg/mg). It counts as functional. (In general: ELISA stands for enzyme-linked immunosorbent assay.)
Data set [2] has as its system J774. The experiment in a line: Antiinflammatory activity in mouse J774 cells assessed as LPS/IFNgamma-induced IL-1beta level at 100 uM incubated for 24 hrs by ELISA (reference value: 9.6 to 26.1 pg/mg). The class given is functional.
Data set [3] has as its system J774. Briefly: Antiinflammatory activity in mouse J774 cells assessed as inhibition of LPS/IFNgamma-induced IL-1beta level incubated for 24 hrs by ELISA relative to control. The class given is functional.
Data set [4] relates to J774. Briefly: Antiinflammatory activity in mouse J774 cells assessed as inhibition of LPS/IFNgamma-induced NO production incubated for 24 hrs by Griess method. The class given is functional, cell-based. The following applies: J774, 24 h. On the technique in general: The Griess reaction detects nitrite, a stable product of nitric oxide.
Data set [5] relates to J774. Briefly: Antiinflammatory activity in mouse J774 cells assessed as LPS/IFNgamma-induced IL-1beta level at 6.3 uM incubated for 24 hrs by ELISA (reference value: 9.6 to 26.1 pg/mg). The class given is functional.
A short description of data set [6]: Cytotoxicity against mouse J774 cells assessed as reduction in cell viability after 72 hrs by Alamar Blue assay. The class given is cell-based. In general terms: The colour change of resazurin is a common sign of viable cells or microbes.
Data set [7] concerns J774. Briefly: Antiinflammatory activity in mouse J774 cells assessed as inhibition of LPS/IFNgamma-induced IL-1beta level at 10 uM incubated for 24 hrs by ELISA relative to control. The class given is functional. The note with it: J774, 24 h.

The IC50 is the concentration that gives 50% inhibition. The term CC50 denotes the concentration at which the toxic effect on the cells reaches its halfway point. As usually defined, the inhibition is how much of the control response was suppressed.

On to `C/C=C(/C)C(=O)OC[C@@H](OC(C)=O)[C@@H](OC(=O)/C(C)=C\C)C(O)(COC(=O)/C(C)=C\C)COC(=O)/C(C)=C\C`, for which the Activity came out at 14.6 pg/mg in the data set with J774 [1], 3.8 pg/mg in the data set with J774 [2] and 15.6 pg/mg in the data set on J774 [5]. Further, the Imax in the data set with J774 [3] stood at 80.6%. Further, the IC50 in the data set with J774 [4] came out at 34.2 µM. Moreover, in data set [6], the CC50 at 72 h came to 206 µM.

For `CC[C@@H](CO)C(=O)OC[C@@H]1O[C@H](OCc2cc(=O)c3c(O)cc(O)cc3o2)[C@@H](O)[C@H](O)[C@H]1O`, the Activity with J774 [1] is reported as 8.6 pg/mg; in the data set with J774 [2], 0.3 pg/mg; with J774 [5], 8.4 pg/mg. Besides, the Imax in the data set with J774 [3] came out at 96.2%. The IC50 in the data set with J774 [4] was 25.3 µM. In data set [6], the CC50 at 72 h was 209 µM.

Regarding `C/C=C(/C)C(=O)OCC(O)(COC(=O)/C(C)=C\C)[C@H](OC(=O)/C(C)=C\C)[C@@H](COC(C)=O)OC(C)=O` (some centres not stated), the Activity in the data set with J774 [1] was determined as 9.3 pg/mg; in the data set with J774 [2], 1.1 pg/mg; in the data set with J774 [5], 7.3 pg/mg. Besides, the Imax with J774 [3] was found to be 88.5%. In addition, in the data set with J774 [4], the IC50 was found to be 28.2 µM. In addition, in data set [6], the CC50 at 72 h stood at 198 µM.

As to `C=C1CC[C@@H]2[C@H](CC2(C)C)[C@@](O)(CO)CC[C@@H]1O`, the Activity is 7 pg/mg in the data set on J774 [1], 0.7 pg/mg with J774 [2] and 14.3 pg/mg in the data set with J774 [5]. Also, the Imax in the data set on J774 [3] was found to be 93%. The IC50 in the data set with J774 [4] stood at 17.8 µM. Besides, in data set [6], the CC50 at 72 h was 193 µM.

As to `CC(=O)OC[C@@]1(O)CC[C@H]2O[C@@]2(C)CC[C@@H]2[C@@H]1CC2(C)C`, the Activity is reported as 6.5 pg/mg with J774 [1], 2.4 pg/mg with J774 [2] and 10.2 pg/mg with J774 [5]. In addition, the Imax in the data set on J774 [3] is 75%. Moreover, in the data set with J774 [4], the IC50 came out at 52.2 µM. In addition, in data set [6], the CC50 at 72 h was determined as 273 µM.

For the molecule `C/C1=C/C[C@@H]2[C@H](CC2(C)C)[C@@](O)(CO)CC[C@@H]1O`, the Activity in the data set with J774 [1] was found to be 14 pg/mg; in the data set on J774 [2] it was 1.5 pg/mg; in the data set with J774 [5], 28.6 pg/mg. Besides, in the data set with J774 [3], the Imax was determined as 92.5%. For the same molecule, in the data set on J774 [4], the concentration for half-maximal inhibition (IC50) was found to be 30.3 µM. For the same molecule, the 50% cytotoxic concentration (CC50) at 72 h in data set [6] worked out at 194 µM.

As to `O=c1cc(CO)oc2cc(O)cc(O)c12` [CNIDIMOL C], the Activity with J774 [1] was 10.5 pg/mg; with J774 [2], 3.9 pg/mg; with J774 [5] it was 15.7 pg/mg. The Imax in the data set on J774 [3] is 72.7%. Besides, the IC50 in the data set on J774 [4] is 22.4 µM. In addition, the CC50 at 72 h in data set [6] came to 256 µM.

Regarding `C[C@@H]1C[C@H]2[C@@H]3CCC4=CC(=O)C=C[C@]4(C)[C@@]3(F)[C@@H](O)C[C@]2(C)[C@@]1(O)C(=O)CO` [DEXAMETHASONE], the inhibition at 10 µM in the data set on J774 [7] came out at 87.1%. Moreover, the IC50 in the data set with J774 [4] was 5.2 µM.

As to `CN(C)c1ccc(C(=C2C=CC(=[N+](C)C)C=C2)c2ccc(N(C)C)cc2)cc1` [GENTIAN VIOLET], the CC50 at 72 h in data set [6] is 0.8 µM.

On to `O=c1cc(CO[C@@H]2O[C@H](CO)[C@@H](O)[C@H](O)[C@H]2O)oc2cc(O)cc(O)c12` [MONNIERISIDE A], for which the Activity is recorded as 9.1 pg/mg in the data set with J774 [1], 2 pg/mg with J774 [2] and 14.6 pg/mg in the data set on J774 [5]. Also, the Imax in the data set on J774 [3] was 85.5%. Besides, the IC50 in the data set on J774 [4] was found to be 66.3 µM. Also, the CC50 at 72 h in data set [6] was 201 µM.

Turning to `Cc1cc(=O)c2c(O)cc(O[C@@H]3O[C@H](CO)[C@@H](O)[C@H](O)[C@H]3O)cc2o1` [UNDULATOSIDE A], the Activity in the data set on J774 [1] amounted to 9.5 pg/mg; with J774 [2], 1.5 pg/mg; in the data set on J774 [5], 14.5 pg/mg. In the data set with J774 [3], the Imax is 89.6%. The IC50 with J774 [4] was 51.2 µM. Moreover, the CC50 at 72 h in data set [6] came out at 191 µM.
